From patent publication US4268505A, “Pharmaceutical composition comprising a nitrogen-containing polysaccharide and an antibiotic agent, and a method of treating an infectious disease therewith” (priority 1979, dated 1981) come the findings set out here.

The subject of one experiment is Proteus mirabilis. As to the kind of experiment: Minimum growth inhibiting concentration, agar plate method. The experiment is classed as cell-based. As for the experimental part: (§1) The drug-resistant strains of bacterial species were obtained in the manner described below according to the concentration gradient plate culture (see "Chemotherapeutics and Resistant Bacteria", 1970, By Chikara Watanabe, Asakura Shoten).
(§2) The agar plates with drug concentration gradient ranging from 10 to 100 μg/ml were prepared, and each strain of the bacterial species to be tested was streaked or smeared. These plates were kept at 37° C. for several days and the colony formed in the high concentration area was isolated and again similarly inoculated to the plates. Such operation was repeated several times to obtain the bacterial strains resistant to the respective drugs.
(§3) The drug sensitivity of the drug-resistant strains and that of the original strains (sensitive strains) were compared by way of the minimum growth inhibiting concentration (hereinafter abbreviated as MIC) according to the Standard Method of the Japanese Chemotherapeutical Association (see "Chemotherapy" Vol. 22, No. 6, 1126 (1974), by MIC Determination Method Reform Committee). More specifically, double diluted systems of each drug were prepared and they were mixed with the heart-infusion agar medium (Nippon Eiyo Kagaku Co., Ltd.) to form the agar plates. Then a loopful of each strain, which had been cultured at 37° C. in Trypto-soy bouillon (Nippon Eiyo Kagaku Co., Ltd.) for 18 hr. was smeared on each the plate, and after culturing for 18 hr. at 37° C., the growth of the strain on each plate was examined.
The amount of the present substance added is more than 10 μg/ml, preferably more than 100 μg/ml. The pH of the medium was maintained at 7.2±0.1 so that MIC would not be affected by pH of the medium.
Specimens of the drug-resistant bacterial strain were obtained according to the aforementioned concentration-gradient plate culture by using Staphylococcus aureus, Streptococcus faecalis, Escherichia coli, Salmonella enteritidis, Klebsiella pneumoniae and Pseudomonas aeruginosa.

The subject of experiment [1] is aminobenzylpenicillin-resistant strain of Klebsiella pneumoniae. The experiment is described as follows: Therapeutical treatment of mice infected with aminobenzylpenicillin-resistant Klebsiella pneumoniae (Example 12). The experiment is classed as in vivo, male ICR-JCL mice. To be noted: only aminobenzylpenicillin 100 mg/kg oral, 7th day. The method, then:
Similar experiments as in Example 9 were performed using the present substance obtained by the procedures described in Example 1.
An aminobenzylpenicillin-resistant strain of Klebsiella pneumoniae obtained by the procedures described in Example 1 was inoculated intraperitoneally into two groups (one group comprising 10 animals) of male ICR-JCL mice at a rate of 1×10^8 cells/mouse.
After 2 hours of the inoculation, 100 mg/kg of aminobenzyl penicillin was orally administered to each mouse of one group, and 1,000 mg/kg of the present substance simply admixtured with 100 mg/kg of aminobenzyl penicillin were orally administered to each mouse of another group. After keeping the mice under usual conditions, the rate of survival of each group was observed on 7th day with the results: […]

Experiment [2] has as its system aminobenzylpenicillin-resistant strain of Enterobacter aerogenes. As to the kind of experiment: Therapeutical treatment of mice infected with aminobenzylpenicillin-resistant Enterobacter aerogenes (Example 13). The experiment is classed as in vivo, male ICR-JCL mice. As to conditions: only aminobenzylpenicillin 100 mg/kg oral, 7th day. The method, then: After keeping the mice for 6 days under usual conditions, their rate of survival was determined on 7th day.

For experiment [3], the system named is cephaloridine-resistant strain of Proteus mirabilis. As to the kind of experiment: Therapeutical treatment of mice infected with cephaloridine-resistant Proteus mirabilis (Example 11). The experiment is classed as in vivo, male ICR-JCL mice. To be noted: only cephaloridine 80 mg/kg i.p., 7th day. The method, then: (§4) Similar experiments of therapeutical treatment as in Example 9 was performed by using the present substance obtained by the procedures described in Example 1.
A cephaloridine-resistant strain of Proteus mirabilis obtained by the procedures described in Example 1 was inoculated into male ICR-JCL mice comprising 20 animals at a rate of 5×10^8 cells/animal. After 2 hours of the inoculation 80 mg/kg of cephalotidine was administered intraperitoneally into each of 10 mice (of 20 mice), and 50 mg/kg of the present substance and 80 mg/kg of cephaloridine were almost simultaneously administered to each of another 10 mice (of 20 mice) intraperitoneally.
After keeping the animals under usual conditions for 6 days, their rate of survival were observed on 7th day to find: […]

The test system of another experiment is Escherichia coli. As to the kind of experiment: Minimum growth inhibiting concentration, agar plate method. The experiment is classed as cell-based. To be noted: for Minimum growth inhibiting concentration: strain resistant to the respective drug. The method, then:
as §1, §2, §3
MIC has apparently been reduced to half the level or less before addition of the present substance as will be seen in Table 3 of EXAMPLE 1. The amount of the present substance added is more than 10 μg/ml, preferably more than 100 μg/ml. The pH of the medium was maintained at 7.2±0.1 so that MIC would not be affected by pH of the medium.
Specimens of the drug-resistant bacterial strain were obtained according to the aforementioned concentration-gradient plate culture by using Staphylococcus aureus, Streptococcus faecalis, Escherichia coli, Salmonella enteritidis, Klebsiella pneumoniae and Pseudomonas aeruginosa. The MICs of the original bacterial strains and those of the bacterial strains which have developed resistance to the respective antibiotics are summarized in Table 2.

For a further experiment, the system named is Enterobacter aerogenes. The experiment is described as above. The experiment is classed as cell-based. To be noted: for Minimum growth inhibiting concentration: strain resistant to the respective drug.
Experiment [4] has as its system kanamycin-resistant strain of Shigella sonnei. The experiment is described as follows: Therapeutical treatment of mice infected with kanamycin-resistant Shigella sonnei (Example 10). As to conditions: only kanamycin 20 mg/kg i.p., 7th day. The experiment is classed as in vivo, male ICR-JCL mice. As for the experimental part:
as §4
A kanamycin-resistant strain of Shigella sonnei obtained by the procedures described in Example 1 was intraperitoneally inoculated to the two groups (each group comprising 10 animals) of male ICR-JCL mice at a rate of 1×10^8 cells/mouse, and after 2 hours of the inoculation, 20 mg/kg of kanamycin was intraperitoneally administered to the mice of one group, and 100 mg/kg of the present substance and 20 mg/kg of kanamycin were almost simultaneously administered to the mice of another group. After keeping the mice under usual conditions for 6 days. Their rate of survival was observed on 7th day.

Another experiment concerns Shigella sonnei. As to the kind of experiment: Minimum growth inhibiting concentration, agar plate method. The experiment is classed as cell-based. To be noted: for Minimum growth inhibiting concentration: strain resistant to the respective drug.
[5] abbreviates: strain resistant to the respective antibiotic (Table 2).
[6] abbreviates: present substance not added (Table 3).
Setting [7] is: present substance added at 1000 μg/ml.

As for `CC1(C)S[C@@H]2[C@H](NC(=O)[C@H](N)c3ccccc3)C(=O)N2[C@H]1C(=O)O` [AP, Aminobenzylpenicillin], the “Minimum growth inhibiting concentration (MIC)” value worked out at 0.8 µg/mL in the experiment with Proteus mirabilis (original strain) and 25 µg/mL in the experiment with Proteus mirabilis (setting [5]). In the experiment with Proteus mirabilis (strain resistant to the respective drug, present substance not added (Table 3)), the “Minimum growth inhibiting concentration” value is 25 µg/mL. Moreover, the rate of survival in experiment [1] is reported as 40%; in experiment [2], 70%.

Consider `O=C(Cc1cccs1)N[C@@H]1C(=O)N2C(C(=O)[O-])=C(C[n+]3ccccc3)CS[C@H]12` [CE, Cephaloridine], for which the rate of survival in experiment [3] was 60%. In addition, the entries for the “Minimum growth inhibiting concentration (MIC)” value in the experiment on Escherichia coli (original strain) and with Escherichia coli (setting [5]) were 3.1 µg/mL and 25 µg/mL, respectively. Also, the results for the “Minimum growth inhibiting concentration” value in the experiment with Escherichia coli (present substance added at 10 μg/ml) and with Escherichia coli (setting [6]) were 12.5 µg/mL and 25 µg/mL, respectively.

Take `NC[C@H]1O[C@H](O[C@H]2[C@H](O)[C@@H](O[C@H]3O[C@H](CO)[C@@H](O)[C@H](N)[C@H]3O)[C@H](N)C[C@@H]2N)[C@H](O)[C@@H](O)[C@@H]1O` [KM, Kanamycin]: the “Minimum growth inhibiting concentration (MIC)” value turned out to be 3.1 µg/mL in the experiment on Enterobacter aerogenes (original strain); 100 µg/mL in the experiment on Enterobacter aerogenes (setting [5]); 6.3 µg/mL in the experiment on Escherichia coli (original strain); 200 µg/mL in the experiment on Escherichia coli (setting [5]); 3.1 µg/mL in the experiment with Shigella sonnei (original strain); 50 µg/mL with Shigella sonnei (setting [5]). For the same molecule, the “Minimum growth inhibiting concentration” value came to 12.5 µg/mL in the experiment with Enterobacter aerogenes (setting [7]); 100 µg/mL with Enterobacter aerogenes (setting [6]); 50 µg/mL with Escherichia coli (setting [7]); 200 µg/mL in the experiment on Escherichia coli (setting [6]); 12.5 µg/mL with Shigella sonnei (setting [7]); 50 µg/mL in the experiment on Shigella sonnei (setting [6]). The molecule also yielded a rate of survival in experiment [4] of 30%.
